Data reported in patent publication US20150031655A1, “COMBINATION OF LIVER X RECEPTOR MODULATOR AND ESTROGEN RECEPTOR MODULATOR FOR THE TREATMENT OF AGE-RELATED DISEASES” (UNIVERSITY OF NORTH DAKOTA, priority 2011, published 2015).

Assays:
[1] = system: α-synuclein; assay: Western blot of α-synuclein protein levels in SH-SY5Y cells; type: cell-based, human; details: for increase in α-synuclein protein / expression levels / 27-OHC-induced increase in α-synuclein protein levels: 24 h; for 27-OHC-induced increase in α-synuclein protein levels: co-treatment with 10 μM 27-OHC
Method: (§1) Human neuroblastoma SH-SY5Y cells were grown in DMEM/F12 medium containing 10% fetal bovine serum (FBS) and 1% antibiotic/antimycotic mix. Cells were maintained at 37° C. in a saturated humidity atmosphere containing 95% air and 5% CO2.
(§2) Treated SH-SY5Y cells were washed with PBS and trypsinized to collect the cells and centrifuged at 5000 g. The pellet was washed again with PBS and homogenized in NE-PER tissue protein extraction reagent (Thermo Scientific, Rockford, Ill.) supplemented with protease and phosphatase inhibitors. Protein concentrations from the cytosolic and nuclear homogenates were determined with BCA protein assay.
(§3) Proteins (10 μg) were separated on SDS-PAGE gels, transferred to a polyvinylidene difluoride membrane (BioRad, Hercules, Calif.), and incubated with the following monoclonal antibodies: anti-TH mouse antibody (1:1000; Sigma Aldrich, Saint Louis, Mo.), anti-α-synuclein mouse antibody (1:500; Chemicon, Temecula, Calif.), anti-ERα rabbit antibody (1:500; Abcam, Cambridge, Mass.), anti-ERβ rabbit antibody (1:200; Upstate, Lake Placid, N.Y.), anti-LXRα rabbit antibody (1:500; Abcam, Cambridge, Mass.), anti-LXRβ mouse antibody (1:500; Abcam, Cambridge, Mass.).
(§4) β-actin and Lamin A were used as a gel loading control for cytosolic homogenates and nuclear homogenates respectively. The blots were developed with enhanced chemiluminescence (Immmun-star HRP chemiluminescent kit, Bio-Rad, Hercules, Calif.). Bands were visualized on a polyvinylidene difluoride membrane and analyzed by LabWorks 4.5 software on a UVP Bioimaging System (Upland, Calif.). Quantification of results was performed by densitometry and the results analyzed as total integrated densitometric values (arbitrary units).

[2] = system: α-synuclein mRNA; assay: Real time RT-PCR of α-synuclein mRNA in SH-SY5Y cells; type: cell-based, human; details: for increase in α-synuclein mRNA expression: 24 h; for 27-OHC-induced increase in α-synuclein mRNA: co-treatment with 10 μM 27-OHC
Method: as §1
Total RNA was isolated and extracted from treated cells using the 5 prime “PerfectPure RNA tissue kit” (5 Prime, Inc., Gaithersburg, Md.). RNA estimation was performed using “Quant-iT RNA Assay Kit” using a Qubit fluorometer according to the manufacturer's protocol (Invitrogen, Carlsbad, Calif.). cDNA was synthesized by reverse transcribing 1 μg of extracted RNA using an “iScript cDNA synthesis kit” (BioRad, Hercules, Calif.). The oligomeric primers (Sigma, St Louis, Mo.) used to amplify the TH mRNA and α-synuclein mRNA are enumerated in Table 1. The cDNA amplification was performed using an iQ SYBR Green Supermix kit following the manufacturer's instructions (BioRad, Hercules, Calif.). The amplification was performed using an iCycler iQ Multicolor Real Time PCR Detection System (BioRad, Hercules, Calif.). The expression of specific TH and α-synuclein transcripts amplified were normalized to the expression of glyceraldehyde-3-phosphate dehydrogenase (GAPDH).

[3] = molecular target: T1, LXRβ (Homo sapiens, UniProt P55055); assay: Western blot of LXRβ levels in the nucleus, SH-SY5Y cells; type: cell-based; design: endogenous in cells; host or cells: SH-SY5Y human neuroblastoma cells; details: for LXRβ protein levels in the nucleus: 24 h, treatment alone vs control
T1 sequence (P55055 1-460): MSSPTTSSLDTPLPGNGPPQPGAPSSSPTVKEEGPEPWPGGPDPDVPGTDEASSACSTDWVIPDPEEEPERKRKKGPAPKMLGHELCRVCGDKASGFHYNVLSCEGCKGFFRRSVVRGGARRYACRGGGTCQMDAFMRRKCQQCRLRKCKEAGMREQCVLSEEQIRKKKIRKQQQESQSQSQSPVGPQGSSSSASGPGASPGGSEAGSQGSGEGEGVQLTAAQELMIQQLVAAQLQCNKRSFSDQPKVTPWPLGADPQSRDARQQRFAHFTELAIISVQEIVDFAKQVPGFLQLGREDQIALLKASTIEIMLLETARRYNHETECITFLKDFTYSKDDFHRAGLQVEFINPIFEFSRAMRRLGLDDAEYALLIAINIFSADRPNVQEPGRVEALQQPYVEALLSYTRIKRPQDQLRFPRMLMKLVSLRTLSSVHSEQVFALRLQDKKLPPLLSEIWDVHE
Method: as §1, §2, §3, §4

SMILES | increase in α-synuclein protein / expression levels ([1]; treatment alone vs control) [fold] | increase in α-synuclein mRNA expression ([2]; treatment alone vs control) [fold] | LXRβ protein levels in the nucleus [3] | 27-OHC-induced increase in α-synuclein protein levels [1] | basal α-synuclein expression levels ([1]; treatment alone vs control) | 27-OHC-induced increase in α-synuclein mRNA [2] | α-synuclein mRNA levels ([2]; treatment alone vs control) | 27-OHC-induced increase in LXRβ in the nucleus ([3]; co-treatment with 10 μM 27-OHC)
C[C@@H](CO)CCC[C@@H](C)[C@H]1CC[C@H]2[C@@H]3CC=C4C[C@@H](O)CC[C@]4(C)[C@H]3CC[C@]12C [27-OHC, 27-hydroxycholesterol] | 2.3 | 9 | increases | – | – | – | – | –
CC(C)CCC[C@@H](C)[C@H]1CC[C@H]2[C@@H]3C[C@@H]4O[C@@]45C[C@@H](OS(=O)(=O)O)CC[C@]5(C)[C@H]3CC[C@]12C [ECHS, 5α,6α-epoxycholesterol-3-sulfate] | – | – | reduced | significantly attenuated | does not produce any effect | marked attenuation | no effect | significantly attenuated
Cl.O=C(O)Cc1cccc(OCCCN(Cc2cccc(C(F)(F)F)c2Cl)CC(c2ccccc2)c2ccccc2)c1 [GW3965, 3-[3-[N-(2-Chloro-3-trifluoromethylbenzyl)-(2,2-diphenylethyl)amino]propyloxy]phenylacetic acid hydrochloride] | 3 | 10 | more pronounced increase | accentuates | – | not mRNA levels | – | –
